Measured values as given in patent US20070249725A1, “Pharmaceutical formulations of sympathetic antagonist for the treatment of chronic muscle pain” (priority 2006, published 2007).
Counter-ions that a name gives are not always drawn.

Tests used:
[1] = Multicenter placebo-controlled dose response study of intramuscular PBZ: safety and tolerance (Example II); assay type: in vivo, human; conditions: most frequent adverse event
[2] = as above; assay type: in vivo, human
Method: This was a multicenter, randomized, placebo-controlled, double-blind, dose response study of intramuscular phenoxybenzamine hydrochloride (PBZ) versus vehicle and saline placebos. Phenoxybenzamine formulation known in the art (propylene glycol and alcohol) and diluted in saline at the time of injection were evaluated. […] Patients with pain in the most commonly affected regions, the upper and lower back, were studied. Patients enrolled in this study were male or female with 4 months to 8 years of myofascial pain syndrome with identifiable active trigger points. Patients were required to have had EMG documented triggers points and meet the criteria of <10 uV in the adjacent muscle site and have a minimum of a 2:1 ratio of trigger point amplitude: adjacent amplitude. Attempts were made to obtain maximum amplitude in the trigger point.
The primary objectives of this study were to evaluate the safety, tolerance, and efficacy of 4 doses (0.1, 0.3, 1.0, or 2.4 mg) of phenoxybenzamine per intramuscular injection site. The vehicle placebo group received vehicle in a concentration equivalent to the active doses. A second placebo was saline. All injections were of 0.3 ml in volume. Up to 10 trigger points were injected at each treatment session. There were up to 2 treatment sessions up to 10 days apart. The primary efficacy evaluation was made at week 12 of treatment. The Visual Analogue Pain Scale (VAS) was used to assess pain in the affected region before and after treatment. Secondary efficacy assessments included the McGill Pain Questionnaire (MPQ), the Spinal Function Sort (SFS) and the SF-36 Quality of Life questionnaire.
Thirty-two of the 79 patients (41%) in the saline placebo group, 33 of 83 patients (40%) in the vehicle placebo group, 35 of the 86 patients (41%) in the 1 mg group, and 37 of the 81 patients (46%) in the 2.4 mg group experienced 1 or more treatment-emergent adverse experiences. For all treatment groups combined, the most common adverse experiences observed were dizziness: 8%; pain 5%; nausea: 3%, and sweating: 3%. […] The most frequent adverse experiences were dizziness (8%) and pain (5%), followed by headache, sweating, and nausea (3% each).

[3] = 1 mg PBZ per injection site, 86 patients

CC(COc1ccccc1)N(CCCl)Cc1ccccc1 (stereo not shown) [Phenoxybenzamine Hydrochloride, phenoxybenzamine hydrochloride]
injection site pain, share of all adverse events [1]: 77% | Dizziness, % of patients ([2]; 0.1 mg PBZ per injection site): 5% | Dizziness, number of patients ([2]; 0.1 mg PBZ per injection site): 1 | Ecchymosis, % of patients ([2]; 0.1 mg PBZ per injection site): 0 (0%) | Ecchymosis, number of patients ([2]; 0.1 mg PBZ per injection site): 0 (0%) | Flu syndrome, % of patients ([2]; 0.1 mg PBZ per injection site): 0 (0%) | Flu syndrome, number of patients ([2]; 0.1 mg PBZ per injection site): 0 (0%) | Headache, % of patients ([2]; 0.1 mg PBZ per injection site): 0 (0%) | Headache, number of patients ([2]; 0.1 mg PBZ per injection site): 0 (0%) | Hypotension, % of patients ([2]; 0.1 mg PBZ per injection site): 0 (0%) | Hypotension, number of patients ([2]; 0.1 mg PBZ per injection site): 0 (0%) | Infection, % of patients ([2]; 0.1 mg PBZ per injection site): 0 (0%) | Infection, number of patients ([2]; 0.1 mg PBZ per injection site): 0 (0%) | Injection site edema, % of patients ([2]; 0.1 mg PBZ per injection site): 0 (0%) | Injection site edema, number of patients ([2]; 0.1 mg PBZ per injection site): 0 (0%) | Nausea, % of patients ([2]; 0.1 mg PBZ per injection site): 0 (0%) | Nausea, number of patients ([2]; 0.1 mg PBZ per injection site): 0 (0%) | Pain, % of patients ([2]; 0.1 mg PBZ per injection site): 5% | Pain, number of patients ([2]; 0.1 mg PBZ per injection site): 1 | Sweating, % of patients ([2]; 0.1 mg PBZ per injection site): 0 (0%) | Sweating, number of patients ([2]; 0.1 mg PBZ per injection site): 0 (0%) | Syncope, % of patients ([2]; 0.1 mg PBZ per injection site): 0 (0%) | Syncope, number of patients ([2]; 0.1 mg PBZ per injection site): 0 (0%) | TOTAL NUMBER OF PATIENTS reporting treatment-emergent adverse experiences, % of patients ([2]; 0.1 mg PBZ per injection site): (33%) | TOTAL NUMBER OF PATIENTS reporting treatment-emergent adverse experiences, number ([2]; 0.1 mg PBZ per injection site): 7 | Dizziness, % of patients ([2]; 0.3 mg PBZ per injection site): 0 (0%) | Dizziness, number of patients ([2]; 0.3 mg PBZ per injection site): 0 (0%) | Ecchymosis, % of patients ([2]; 0.3 mg PBZ per injection site): 0 (0%) | Ecchymosis, number of patients ([2]; 0.3 mg PBZ per injection site): 0 (0%) | Flu syndrome, % of patients ([2]; 0.3 mg PBZ per injection site): 5% | Flu syndrome, number of patients ([2]; 0.3 mg PBZ per injection site): 1 | Headache, % of patients ([2]; 0.3 mg PBZ per injection site): 5% | Headache, number of patients ([2]; 0.3 mg PBZ per injection site): 1 | Hypotension, % of patients ([2]; 0.3 mg PBZ per injection site): 0 (0%) | Hypotension, number of patients ([2]; 0.3 mg PBZ per injection site): 0 (0%) | Infection, % of patients ([2]; 0.3 mg PBZ per injection site): 5% | Infection, number of patients ([2]; 0.3 mg PBZ per injection site): 1 | Injection site edema, % of patients ([2]; 0.3 mg PBZ per injection site): 0 (0%) | Injection site edema, number of patients ([2]; 0.3 mg PBZ per injection site): 0 (0%) | Nausea, % of patients ([2]; 0.3 mg PBZ per injection site): 5% | Nausea, number of patients ([2]; 0.3 mg PBZ per injection site): 1 | Pain, % of patients ([2]; 0.3 mg PBZ per injection site): 0 (0%) | Pain, number of patients ([2]; 0.3 mg PBZ per injection site): 0 (0%) | Sweating, % of patients ([2]; 0.3 mg PBZ per injection site): 0 (0%) | Sweating, number of patients ([2]; 0.3 mg PBZ per injection site): 0 (0%) | Syncope, % of patients ([2]; 0.3 mg PBZ per injection site): 0 (0%) | Syncope, number of patients ([2]; 0.3 mg PBZ per injection site): 0 (0%) | TOTAL NUMBER OF PATIENTS reporting treatment-emergent adverse experiences, % of patients ([2]; 0.3 mg PBZ per injection site): (23%) | TOTAL NUMBER OF PATIENTS reporting treatment-emergent adverse experiences, number ([2]; 0.3 mg PBZ per injection site): 5 | Dizziness, % of patients ([2]; 1 mg PBZ per injection site): 13% | Dizziness, number of patients ([2]; 1 mg PBZ per injection site): 11 | Ecchymosis, % of patients ([2]; 1 mg PBZ per injection site): 1 (1%) | Ecchymosis, number of patients ([2]; 1 mg PBZ per injection site): 1 (1%) | Flu syndrome, % of patients ([2]; 1 mg PBZ per injection site): 3 (3%) | Flu syndrome, number of patients ([2]; 1 mg PBZ per injection site): 3 (3%) | Headache, % of patients ([2]; 1 mg PBZ per injection site): 6% | Headache, number of patients ([2]; 1 mg PBZ per injection site): 5 | Hypotension, % of patients ([2]; 1 mg PBZ per injection site): 2 (2%) | Hypotension, number of patients ([2]; 1 mg PBZ per injection site): 2 (2%) | Infection, % of patients ([2]; 1 mg PBZ per injection site): 2 (2%) | Infection, number of patients ([2]; 1 mg PBZ per injection site): 2 (2%) | Injection site edema, % of patients ([2]; 1 mg PBZ per injection site): 2 (2%) | Injection site edema, number of patients ([2]; 1 mg PBZ per injection site): 2 (2%) | Nausea, % of patients ([2]; 1 mg PBZ per injection site): 1 (1%) | Nausea, number of patients ([2]; 1 mg PBZ per injection site): 1 (1%) | Pain, % of patients ([2]; 1 mg PBZ per injection site): 8% | Pain, number of patients ([2]; 1 mg PBZ per injection site): 7 | Sweating, % of patients ([2]; 1 mg PBZ per injection site): 3 (3%) | Sweating, number of patients ([2]; 1 mg PBZ per injection site): 3 (3%) | Syncope, % of patients ([2]; 1 mg PBZ per injection site): 2 (2%) | Syncope, number of patients ([2]; 1 mg PBZ per injection site): 2 (2%) | TOTAL NUMBER OF PATIENTS reporting treatment-emergent adverse experiences, % of patients [2, 3]: 41% | TOTAL NUMBER OF PATIENTS reporting treatment-emergent adverse experiences, number [2, 3]: 35 | Dizziness, % of patients ([2]; 2.4 mg PBZ per injection site): (10%) | Dizziness, number of patients ([2]; 2.4 mg PBZ per injection site): 8 | Ecchymosis, % of patients ([2]; 2.4 mg PBZ per injection site): 1 (1%) | Ecchymosis, number of patients ([2]; 2.4 mg PBZ per injection site): 1 (1%) | Flu syndrome, % of patients ([2]; 2.4 mg PBZ per injection site): 1 (1%) | Flu syndrome, number of patients ([2]; 2.4 mg PBZ per injection site): 1 (1%) | Headache, % of patients ([2]; 2.4 mg PBZ per injection site): 0 (0%) | Headache, number of patients ([2]; 2.4 mg PBZ per injection site): 0 (0%) | Hypotension, % of patients ([2]; 2.4 mg PBZ per injection site): 1 (1%) | Hypotension, number of patients ([2]; 2.4 mg PBZ per injection site): 1 (1%) | Infection, % of patients ([2]; 2.4 mg PBZ per injection site): 1 (1%) | Infection, number of patients ([2]; 2.4 mg PBZ per injection site): 1 (1%) | Injection site edema, % of patients ([2]; 2.4 mg PBZ per injection site): 9% | Injection site edema, number of patients ([2]; 2.4 mg PBZ per injection site): 7 | Nausea, % of patients ([2]; 2.4 mg PBZ per injection site): 5% | Nausea, number of patients ([2]; 2.4 mg PBZ per injection site): 4 | Pain, % of patients ([2]; 2.4 mg PBZ per injection site): 6% | Pain, number of patients ([2]; 2.4 mg PBZ per injection site): 5 | Sweating, % of patients ([2]; 2.4 mg PBZ per injection site): 6% | Sweating, number of patients ([2]; 2.4 mg PBZ per injection site): 5 | Syncope, % of patients ([2]; 2.4 mg PBZ per injection site): 1 (1%) | Syncope, number of patients ([2]; 2.4 mg PBZ per injection site): 1 (1%) | TOTAL NUMBER OF PATIENTS reporting treatment-emergent adverse experiences, number ([2]; 2.4 mg PBZ per injection site, 81 patients): 37 | injection site soreness compared with placebo groups ([2]; high dose groups, first and second treatments): Significantly more patients | injection site pain, mean duration ([2]; in vivo): less than 10 days | injection site pain, severity ([2]; in vivo): mild to moderate | side effects at the injection site ([2]; low dosages): caused some adverse side effected at the injection site
